Patent US6001851A, “HIV protease inhibitors” (Agouron Pharmaceuticals, Inc., priority 1998, dated 1999)
Where two headings read alike, the source gives them in different places.

How the values were obtained:
[1] = test system: HIV-1 IIIB; assay: Cell protection assay (MTT dye reduction): acute infection of MT-2 cells with HIV-1 IIIB; format: cell-based, HIV-1 strain IIIB (in human T cell line MT-2); conditions: for Therapeutic: therapeutic index TC50/ED50, MT-2 cells, 10080 min
Method: (§1) The CEM-SS and MT-2 human T cell lines and HIV-1 strains RF and IIIB were obtained from the AIDS Research and Reference Program, Division of AIDS, NIAID, and NIH.
(§2) The inhibitory effects of each agent on HIV-1 replication were measured by the MTT dye reduction method (Alley, M. C. et al., Cancer Res. 48: 589-601 (1988)). Compounds were dissolved in DMSO at a concentration of 40 mg/ml then diluted 1:200 in culture medium (RPMI, supplemented with 10% fetal bovine serum). From each diluted stock, 100 μl was added to a 96-well plate and serial half-log dilutions were prepared. In separate tubes, MT-2 cells and CEM-SS cells were infected with HIV-1 IIIB or HIV-1 RF at a multiplicity of infection (m.o.i.) of 0.01 and 0.03, respectively. Following a 4-hour adsorption period, […] of infected or uninfected cells were added to the wells of the drug containing plate to give a final concentration of 1×10^4 cells/well. Six days (CEM-SS cells) or 7 days (MT-2 cells) later, MTT (5 mg/ml) was added to test plates and the amount of formazan produced was quantified spectrophotometrically at 570 nm. Data were expressed as the percentage of formazan produced in drug-treated cells compared to formazan produced in wells of uninfected, drug-free cells. The EDS50 was calculated as the concentration of drug that increased the percentage of formazan production in infected, drug-treated cells to 50% of that produced by uninfected, drug-free cells. Cytotoxicity (TC50) was calculated as the concentration of drug that decreased the percentage of formazan produced in uninfected, drug-treated cells to 50% of that produced in uninfected, drug-free cells. The therapeutic index (TI) was calculated by dividing the cytotoxicity (TC50) by the antiviral efficacy (ED50).

[2] = Cytotoxicity in uninfected CEM-SS cells (MTT); format: cell-based; conditions: human
Method: as §1, §2

[3] = Cytotoxicity in uninfected MT-2 cells (MTT); format: cell-based; conditions: human
Method: as §1, §2

[4] = test system: HIV-1 RF; assay: Cell protection assay (MTT dye reduction): acute infection of CEM-SS cells with HIV-1 RF; format: cell-based, HIV-1 strain RF (in human T cell line CEM-SS); conditions: for EC95: read-out: ED95; for Therapeutic index: TC50/ED50, CEM-SS cells, 8640 min
Method: as §1, §2

[5] = Metabolite obtained from the plasma of patients; format: in vivo; conditions: plasma of patients administered the N-t-butylcarboxamide methanesulfonic acid salt of U.S. Pat. No. 5,484,926
Description: A process for making compound 21 is provided below.

[6] = target: T1, HIV-1 protease (Q7S) (Human immunodeficiency virus type 1 group M subtype B, UniProt P03366, Q507S); assay: Tight-binding kinetics assay, HIV-1 protease inhibition (modified chromogenic assay); format: biochemical, HIV-1 (viral strain IIIB)
T1 construct: HIV-1 protease gene was isolated from the viral strain IIIB; made in house; host or cells: E. coli BL21(DE3), plasmid pGZ/HP-19Q7S#9
Method: Proteolytic activity of purified HIV-1 protease was measured using a modified chromogenic assay developed by Richards at al. (Richards, A. D. et al. J. Biol. Chem., 256, 773-7736 (1990)). […] The assay was carried out in 0.5 M NaCl, 50 mM MES pH 5.6, 5 mM DDT, and 2% DMSO at 37° C. Cleavage of the scissile bond between leucine and paranitro-phenylalanine (Phe para-NO2) was assayed by spectrophotometric monitoring of the decrease on absorbance at 305 nm.

[7] = Human immunodeficiency virus 1, MT2, 168 h, MT-2 cells, HIV-1 IIIB, m.o.i. 0.01, 7 days, read-out: ED50 (the source's name)
[8] = Human immunodeficiency virus 1, 144 h, CEM-SS cells, HIV-1 RF, m.o.i. 0.03, 6 days, read-out: ED50 (the source's name)
[9] = Human immunodeficiency virus 1, 144 h, CEM-SS cells, HIV-1 RF, m.o.i. 0.03, 6 days
[10] = uninfected CEM-SS cells, 6 days, read-out: TC50
[11] = uninfected MT-2 cells, 7 days, read-out: TC50

| Compound | EC50 [1, 7] [nM] | Therapeutic ([1]; HIV-1 IIIB) | CC50 at 144 h ([2]; cem-ss cells) [nM] | CC50 at 168 h ([3]; mt-2 cells) [nM] | EC50 [4, 8] [nM] | EC95 [4, 9] [nM] | Therapeutic index ([4]; HIV-1 RF) | EC50 ([1]; Human immunodeficiency virus 1, IIIB, MT2, 168 h, read-out: ED50) [nM] | CC50 at 144 h [2, 10] [nM] | CC50 at 168 h [3, 11] [nM] | EC50 ([4]; Human immunodeficiency virus 1, CEM-SS, 144 h, read-out: ED50) [nM] | EC95 ([4]; Human immunodeficiency virus 1, CEM-SS, 144 h) [nM] | obtained as a metabolite [5] | Ki ([6]; tight binding kinetics, 200 uM substrate, pH 5.6, 37° C., Morrison fit) [nM] | Km ([6]; substrate, Q7S HIV-1 protease, 0.5 M NaCl, 50 mM MES pH 5.6, 2% DMSO, 37° C., read-out: Michaelis constant (Km)) [µM] |
| --- | --- | --- | --- | --- | --- | --- | --- | --- | --- | --- | --- | --- | --- | --- | --- |
| Nc1ccn([C@H]2CC[C@@H](CO)O2)c(=O)n1 [ddC, dideoxycytidine] | 5920 | 30 | 37700 | 176000 | 94.7 | 142 | 398 |  |  |  |  |  |  |  |  |
| Cc1cn([C@H]2C[C@H](N=[N+]=[N-])[C@@H](CO)O2)c(=O)[nH]c1=O [AZT, azidothymidine] |  | 254 |  |  |  |  | > 7161 | 431 | > 374000 | 109000 | 52.3 | 543 |  |  |  |
| Cc1c(O)cccc1C(=O)NC(CSc1ccccc1)C(O)CN1CC2CCCCC2CC1C(=O)NC(C)(C)CO (stereo not drawn) [Compound 21, [3S-[2(2S*,3S*),3 alpha,4abeta,8abeta]]-N-(1,1-dimethyl-2-hydroxyethyl)decahydro-2-[2-hydroxy-3-[(3-hydroxy-2-methylbenzoyl)amino]-4-(phenylthio)butyl]-3-isoquinolinecarboxamide] | 85.6 | 1082 |  |  | 34.2 | 154 | 2825 |  | 96600 | 92600 |  |  | obtained as a metabolite from the plasma of patients | 5.6 ± 0.91 |  |
| His-Lys-Ala-Arg-Val-Leu-Phe(paraNO2)-Glu-Ala-Nle-Ser-NH2 |  |  |  |  |  |  |  |  |  |  |  |  |  |  | 59 ± 17 |
